{"source": "patent US8299265B2", "about": "“Amine derivatives having NPY Y5 receptor antagonistic activity and the uses thereof” (Shionogi & Co., Ltd., priority 2007, dated 2012)", "key": {"male C57BL/6J mice": {"test_system": "male C57BL/6J mice", "assay": "Inhibition of Y5 agonist-induced food intake in mice", "type": "in vivo", "settings": "Mus musculus, 4 hours after dosing, read-out: Inhibition ratio of Y5 agonist-induced food intake; for inhibition in vivo at 6 mg/kg: unmarked cells", "experimental": "Under diethylether anesthesia the skull of male C57BL/6J mice (12-14 week old, 25-30 g) was exposed by making an incision about 1-cm long from external occipital crest to nasal dorsum, and then drilled in the 1-mm lateral position to the left following 1-mm posterior from bregma. After recovery from anesthesia mice were dosed with either 0.5% hydroxypropylmethyl cellulose solution (vehicle, Shin-Etsu Chemical Co., Ltd) or the compounds of this invention suspended in the 0.5% hydroxypropylmethyl cellulose solution. At one hour after the treatment, each animal received saline or a NPY Y5 receptor specific agonist, [cPP^1-7, NPY^19-23, Ala^31, Aib^32, Gln^34]-hPancreatic Polypeptide (0.1 nmol/1.5 μL saline/mouse) through the skull opening using a canula. Residual food was measured at 2 and 4 hours after the treatment."}, "[1]": {"test_system": "high-fat diet-induced obese mice", "assay": "Suppression of body weight gain in high-fat diet-induced obese mice", "type": "in vivo", "settings": "6 mg/kg b.i.d. for 3 weeks, compared to vehicle", "experimental": "Prior to administration of the compounds of this invention, male C57BL/6J mice were given a high-fat diet to induce obese. The high-fat diet-induced obese mice (13-14 week old, body weight 28-33 g) were dosed with 0.5% hydroxypropylmethyl cellulose solution (vehicle, Shin-Etsu Chemical Co., Ltd) or the compounds of this invention suspended in the 0.5% hydroxypropylmethyl cellulose solution twice a day (b.i.d.) for 3 weeks with the same diet. The changes in body weight were monitored daily."}, "P-gp": {"molecular_target": "T1, P-gp (Mus musculus, UniProt P21447)", "T1 construct": "from tissue; host or cells: living mice (Jcl; C57BL/6J, male, 7 weeks), brain / blood-brain barrier", "T1 sequence (P21447 whole entry)": "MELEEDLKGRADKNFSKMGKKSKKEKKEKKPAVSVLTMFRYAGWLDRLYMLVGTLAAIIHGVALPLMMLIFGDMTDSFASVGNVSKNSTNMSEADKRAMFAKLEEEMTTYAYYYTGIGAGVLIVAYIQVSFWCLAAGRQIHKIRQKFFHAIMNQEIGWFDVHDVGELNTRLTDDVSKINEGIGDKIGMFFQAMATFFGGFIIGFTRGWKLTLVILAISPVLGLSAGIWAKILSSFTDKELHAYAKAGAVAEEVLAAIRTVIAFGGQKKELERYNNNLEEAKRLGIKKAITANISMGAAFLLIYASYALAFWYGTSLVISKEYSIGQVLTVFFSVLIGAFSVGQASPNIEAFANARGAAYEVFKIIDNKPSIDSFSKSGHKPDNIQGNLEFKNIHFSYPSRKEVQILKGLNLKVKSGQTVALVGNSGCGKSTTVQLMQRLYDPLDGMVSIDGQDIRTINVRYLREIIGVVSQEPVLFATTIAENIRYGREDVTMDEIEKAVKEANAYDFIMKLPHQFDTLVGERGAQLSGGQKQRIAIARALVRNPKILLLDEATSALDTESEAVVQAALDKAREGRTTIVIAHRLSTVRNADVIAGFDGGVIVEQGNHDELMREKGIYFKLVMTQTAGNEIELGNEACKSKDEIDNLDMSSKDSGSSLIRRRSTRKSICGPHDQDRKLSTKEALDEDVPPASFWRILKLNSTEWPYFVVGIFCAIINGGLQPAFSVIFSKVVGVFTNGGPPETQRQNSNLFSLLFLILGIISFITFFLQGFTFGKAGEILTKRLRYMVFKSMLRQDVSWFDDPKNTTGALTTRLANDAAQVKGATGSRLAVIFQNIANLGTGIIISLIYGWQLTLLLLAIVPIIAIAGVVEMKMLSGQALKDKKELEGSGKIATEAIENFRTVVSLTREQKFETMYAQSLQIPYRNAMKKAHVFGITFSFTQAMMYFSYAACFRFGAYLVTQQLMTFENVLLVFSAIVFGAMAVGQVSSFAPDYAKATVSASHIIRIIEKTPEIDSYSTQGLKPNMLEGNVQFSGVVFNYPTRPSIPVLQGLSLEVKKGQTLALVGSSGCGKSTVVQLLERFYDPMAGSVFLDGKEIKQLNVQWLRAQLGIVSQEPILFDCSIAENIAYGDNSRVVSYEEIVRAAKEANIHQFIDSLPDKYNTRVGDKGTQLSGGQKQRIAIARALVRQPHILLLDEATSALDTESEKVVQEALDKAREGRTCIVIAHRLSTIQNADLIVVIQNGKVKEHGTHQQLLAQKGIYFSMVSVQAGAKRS", "assay": "Potential for drug-drug interactions through P-gp in vivo (Kp with or without cyclosporin A)", "settings": "mice, Kp with versus without cyclosporin A (20 mg/kg)", "experimental": "Transportability of the compounds of this invention through the blood-brain barrier (blood-brain partition coefficient; Kp) in mice (Jcl; C57BL/6J mice, ♂, 7 weeks) was defined from the difference in concentration of the compounds between in plasma and in brain after intravenous administration of the compounds (0.5 mg/2 mL/kg). The brain Kp value of Compound (I-72) (Kp Cont.) was 1.29 showing high transportability through the blood-brain barrier.\nTo examine the potential for drug-drug interactions through P-gp in vivo, the Kp values of compounds of this invention with (KpCSA) or without (KpCont.) cyclosporin A (20 mg/kg), a P-gp inhibitor, were calculated. The KpCSA value of Compound (I-72) was 1.14, and the calculated KpCSA KpCont. ratio was 0.9.\nOn the other hand the potential for drug-drug interactions through P-pg of amide compound B which has similar structure of Compound (I-72) was also examined in mice. The KpCont. and KpCSA were 0.04 and 0.84, respectively."}, "mouse NPY Y5 receptor": {"molecular_target": "T2, mouse NPY Y5 receptor (Mus musculus, UniProt O70342)", "T2 construct": "expressed in transfected cells; membranes used", "T2 sequence (O70342 1-466)": "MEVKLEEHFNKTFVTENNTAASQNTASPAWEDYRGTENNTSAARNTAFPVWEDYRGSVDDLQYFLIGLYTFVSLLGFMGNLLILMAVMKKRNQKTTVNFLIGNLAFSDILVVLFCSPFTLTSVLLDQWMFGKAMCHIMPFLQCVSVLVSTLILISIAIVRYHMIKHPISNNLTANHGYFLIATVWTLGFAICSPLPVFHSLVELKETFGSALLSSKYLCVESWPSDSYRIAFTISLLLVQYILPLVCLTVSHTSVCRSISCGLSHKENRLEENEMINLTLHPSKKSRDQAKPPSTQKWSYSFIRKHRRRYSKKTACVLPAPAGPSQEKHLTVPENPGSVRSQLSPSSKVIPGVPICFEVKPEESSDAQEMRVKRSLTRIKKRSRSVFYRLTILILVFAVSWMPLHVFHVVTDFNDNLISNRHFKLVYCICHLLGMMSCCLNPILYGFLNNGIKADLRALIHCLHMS", "assay": "Affinity for mouse NPY Y5 receptor ([125I] peptide YY binding, CHO cell membranes)", "settings": "membranes of CHO cells expressing mouse NPY Y5 receptor", "text": "cDNA sequence encoding a mouse NPY Y5 receptor (Biochim. Biophys. Acta 1328, 83-89, 1997) was cloned in a vector (pME18S, Takebe et al. Mol. Cell. Biol. 8, 466-472). The obtained expression vector was transfected into CHO cells as a host by using Lipofect AMINE reagent (Trademark, Gico BRL Co., Ltd.) according to the instruction manual. The cells that stably express NPY Y5 receptor were obtained.\nThe membranes prepared from the CHO cells expressing NPY Y5 receptor, the compound of this invention and 30,000 cpm [^125I] peptide YY (60 pM of final concentration: Amersham) were incubated in the assay buffer (20 mM HEPES-Hanks buffer containing 0.1% bovine serum albumin, pH 7.4) at 25° C. for 2 hours, and then the membrane was filtered from the mixture through a glassfilter (GF/C) presoaked with 1% polyethyleneimine. After washing with 50 mM Tris-HCl buffer (pH 7.4), radioactivity retained on the filters was quantified with a gamma counter.\nNonspecific binding was defined as the amount of radioactivity bound to the membranes after incubation in the presence of 200 nM of peptide YY. The 50% inhibitory concentration of the test compound against the specific peptide YY binding (IC50 value) was calculated (Inui, A. et al. Endocrinology 131, 2090-2096 (1992))."}}}
{"smiles": "CC(C)(C)S(=O)(=O)NC[C@H]1CC[C@H](Nc2nc3cc(F)ccc3o2)CC1", "note": "[Ij-158]", "values": [{"measurement": "inhibition in vivo at 6 mg/kg", "setting": "male C57BL/6J mice", "result": 70.5, "unit": "%"}, {"measurement": "melting point", "result": "220 to 221", "unit": "°C"}]}
{"smiles": "CC(C)S(=O)(=O)NC[C@H]1CC[C@H](Nc2nc3ccc(F)cc3s2)CC1", "note": "[Ij-152]", "values": [{"measurement": "inhibition in vivo at 1.5 mg/kg", "setting": "male C57BL/6J mice", "result": 62.6, "unit": "%"}, {"measurement": "melting point", "result": "151 to 152", "unit": "°C"}]}
{"smiles": "CC(C)S(=O)(=O)N[C@H]1CC[C@H](CNc2cc(F)cc(N3CCOCC3)c2)CC1", "note": "[Ii-55]", "values": [{"measurement": "inhibition in vivo at 6 mg/kg", "setting": "male C57BL/6J mice", "result": 64.3, "unit": "%"}]}
{"smiles": "CCS(=O)(=O)NC[C@H]1CC[C@H](Nc2ccn(-c3ccccc3F)n2)CC1", "note": "[Ij-112]", "values": [{"measurement": "Body weight gain", "setting": "[1]", "result": "suppresses Body Weight Gain"}]}
{"smiles": "CC(C)S(=O)(=O)NC[C@H]1CC[C@H](Nc2nc3cc(F)ccc3o2)CC1", "note": "[Ij-155]", "values": [{"measurement": "inhibition in vivo at 1.5 mg/kg", "setting": "male C57BL/6J mice", "result": 56.1, "unit": "%"}]}
{"smiles": "CCC(C)S(=O)(=O)NC[C@H]1CC[C@H](Nc2nc3ccc(F)cc3o2)CC1", "note": "(stereo partly drawn) [Ij-161]", "values": [{"measurement": "inhibition in vivo at 1.5 mg/kg", "setting": "male C57BL/6J mice", "result": 15.8, "unit": "%"}, {"measurement": "melting point", "result": "173 to 174", "unit": "°C"}]}
{"smiles": "CC(C)(C)S(=O)(=O)NC[C@H]1CC[C@H](Nc2nc3ccc(F)cc3o2)CC1", "note": "[Ij-159]", "values": [{"measurement": "inhibition in vivo at 6 mg/kg", "setting": "male C57BL/6J mice", "result": 83.2, "unit": "%"}]}
{"smiles": "C[C@@H]1CN(c2ccc(NC[C@H]3CC[C@H](NS(=O)(=O)C(C)(C)C)CC3)cc2)C[C@H](C)O1", "note": "[Compound I-72]", "values": [{"measurement": "KpCSA/KpCont. ratio", "setting": "P-gp", "result": 0.9}]}
{"smiles": "CC(C)S(=O)(=O)NC[C@H]1CC[C@H](Nc2nc3cccc(F)c3s2)CC1", "note": "[Ij-153]", "values": [{"measurement": "inhibition in vivo at 6 mg/kg", "setting": "male C57BL/6J mice", "result": 73, "unit": "%"}]}
{"smiles": "CCS(=O)(=O)N[C@H]1CC[C@H](CNc2cc(-c3ccccc3)on2)CC1", "note": "[Ii-44]", "values": [{"measurement": "IC50", "setting": "mouse NPY Y5 receptor", "result": 3.4, "unit": "nM"}]}
{"smiles": "Cn1c(=O)oc2cc(NC[C@H]3CC[C@H](NS(=O)(=O)C(C)(C)C)CC3)cc(F)c21", "note": "[Ii-45]", "values": [{"measurement": "Body weight gain", "setting": "[1]", "result": "suppresses Body Weight Gain"}, {"measurement": "inhibition in vivo at 6 mg/kg", "setting": "male C57BL/6J mice", "result": 76.2, "unit": "%"}]}
{"smiles": "CC(C)S(=O)(=O)NC[C@H]1CC[C@H](Nc2nc3cc(Cl)ccc3s2)CC1", "note": "[Ij-154]", "values": [{"measurement": "inhibition in vivo at 6 mg/kg", "setting": "male C57BL/6J mice", "result": 81.3, "unit": "%"}, {"measurement": "melting point", "result": "166 to 167", "unit": "°C"}]}
{"smiles": "CC(C)S(=O)(=O)NC[C@H]1CC[C@H](Nc2nc3ccc(F)cc3o2)CC1", "note": "[Ij-156]", "values": [{"measurement": "inhibition in vivo at 12.5 mg/kg", "setting": "male C57BL/6J mice; **Dose: 12.5 mg/kg", "result": 90.4, "unit": "%"}, {"measurement": "melting point", "result": "170 to 171", "unit": "°C"}]}
{"smiles": "CCS(=O)(=O)NC[C@H]1CC[C@H](Nc2ccc(-c3ccccc3)cn2)CC1", "note": "[Ij-4]", "values": [{"measurement": "inhibition in vivo at 6 mg/kg", "setting": "male C57BL/6J mice", "result": 88.2, "unit": "%"}]}
{"smiles": "C[C@@H]1CN(c2ccc(NC(=O)[C@H]3CC[C@H](NS(=O)(=O)C(C)(C)C)CC3)cc2)C[C@H](C)O1", "note": "[amide compound B, reference compound]", "values": [{"measurement": "KpCSA/KpCont. ratio", "setting": "P-gp", "result": 20.5}]}
{"smiles": "CCS(=O)(=O)NC[C@H]1CC[C@H](Nc2nc3ccccc3o2)CC1", "note": "[Ij-150]", "values": [{"measurement": "inhibition in vivo at 6 mg/kg", "setting": "male C57BL/6J mice", "result": 25.3, "unit": "%"}, {"measurement": "melting point", "result": "170 to 171", "unit": "°C"}]}
{"smiles": "CC(C)S(=O)(=O)NC[C@H]1CC[C@H](Nc2nc3cc(F)ccc3s2)CC1", "note": "[Ij-151]", "values": [{"measurement": "inhibition in vivo at 1.5 mg/kg", "setting": "male C57BL/6J mice", "result": 78.4, "unit": "%"}, {"measurement": "melting point", "result": "165 to 166", "unit": "°C"}]}
{"smiles": "CCC(C)S(=O)(=O)NC[C@H]1CC[C@H](Nc2nc3cc(F)ccc3o2)CC1", "note": "(stereo partly drawn) [Ij-160]", "values": [{"measurement": "inhibition in vivo at 1.5 mg/kg", "setting": "male C57BL/6J mice", "result": 36.6, "unit": "%"}]}
{"smiles": "CC(C)(C)S(=O)(=O)NC[C@H]1CC[C@H](Nc2ccn(-c3ccccc3F)n2)CC1", "note": "[Ij-110]", "values": [{"measurement": "inhibition in vivo at 6 mg/kg", "setting": "male C57BL/6J mice", "result": 90.3, "unit": "%"}]}
